Measured values reported in patent US12465614B2, “Budesonide 21-phosphate salts and pharmaceutical compositions containing the same” (GENETIC S.P.A., priority 2020, dated 2025).

Assays:
Assay type in all cases: in vivo
[1] = tested on: mice with OVA-induced allergic asthma; test: BAL fluid cell counts, Bud vs Bud-21 P (Experimental Groups III)
Protocol: Male Balb/c SPF mice (25*2 g, 6-week-old) were purchased from the animal house facilities at the São Paulo School of Medicine (Federal University of São Paulo, Brazil). They were group-housed in a temperature-controlled room at 22° C. with a 12/12-hour light/dark cycle and allowed free access to food and water. The study is in agreement with the Ethical Principles for Animal Research established by the Brazilian College for Animal Experimentation (COBEA). According to the internal laboratory rules, euthanasia is performed if severe distress related to the test agents developed during the experiment.
In Protocol 3, the test compounds budesonide (Bud; MW: 430.53 g/mol) and budesonide 21-phosphate free acid (Bud-21 P; MW: 510.51 g/mol) were administered at equimolar doses of 3, 10 and 30 nmol/animal/day, equivalent to 1.3, 4.3 and 12.9 μg/animal/day of Bud, 1.5, 5.1 and 15.3 μg/animal/day of Bud-21 P, respectively. […]
After Penh evaluation, the mice were anesthetized with inhaled isofluorane (5% v/v in O2) and blood samples were collected from the descending abdominal aorta. […] Total cell counts were determined using a Neubauer chamber, and differential counting was carried out in cytospin (Fanem Mod 2400; São Paulo, Brazil) preparations stained with May-Grünwald dye. […]

OVA-sensitized mice = test: Bronchial relaxation to salbutamol, isolated bronchi of OVA-sensitized mice (Experimental Groups I); settings: 1 mg/Kg i.p.; rings precontracted with carbachol; vs OVA group; FIG. 10B
[2] = tested on: mice with OVA-induced allergic asthma; test: Lung hyperreactivity/Penh function, whole body plethysmography, intra-nasal FB, F, B (Experimental Groups II); settings: i.n. daily 2 weeks, all tested doses: FB 0.3, 1.0, 3.0 nmol/animal, vs untreated OVA group
[3] = tested on: mice with OVA-induced allergic asthma; test: BAL fluid cell counts (Experimental Groups II)
Protocol: Male Balb/c SPF mice (25*2 g, 6-week-old) were purchased from the animal house facilities at the São Paulo School of Medicine (Federal University of São Paulo, Brazil). They were group-housed in a temperature-controlled room at 22° C. with a 12/12-hour light/dark cycle and allowed free access to food and water. The study is in agreement with the Ethical Principles for Animal Research established by the Brazilian College for Animal Experimentation (COBEA). According to the internal laboratory rules, euthanasia is performed if severe distress related to the test agents developed during the experiment. […] The compounds were dissolved in DMSO (Sigma Chemical Co., St. Louis, MO) at concentrations at which the determined dose per animal results from the intraperitoneal administration of 100 μl of solution (1:10 DMSO) and intra-nasal (i.n.) administration of 10 μl/animal (5 μl/nostril) of the solutions. Mice were sensitized with two subcutaneous injections of 0.4 ml of OVA/Al(OH)3, with an interval of 7 days (Sham animals received the Al(OH)3 suspension in PBS with no OVA). Seven days after the second sensitization (i.e., 3rd week), the animals were nebulized twice a week with the 1% OVA solution (Sham and untreated OVA groups were nebulized with PBS) during 20 minutes for the next 2 weeks. Sixty minutes before the challenges (OVA nebulization) and daily during the next 4 weeks, mice were intra-nasally treated (10 μl/animal as 5 μl/nostril) with the respective compounds/vehicle. After Penh evaluation, the mice were anesthetized with inhaled isofluorane (5% v/v in O2) and blood samples were collected from the descending abdominal aorta. The mice were then euthanized by exsanguination (blood samples were collected from each animal for leukocyte cell counting), and bronchoalveolar lavage (BAL) was performed by exposing and cannulating the trachea with a polyethylene tube (1 mm outer diameter) connected to a syringe. The lungs were washed by flushing 300 μL of heparin-containing PBS solution (20 Ul/mL). The retrieved BAL lavage aliquots were obtained, and the same procedure was repeated four additional times. The samples were submitted to centrifugation (1000 g for 10 min) and the cell pellet was resuspended in 200 μL of PBS solution. Total cell counts were determined using a Neubauer chamber, and differential counting was carried out in cytospin (Fanem Mod 2400; São Paulo, Brazil) preparations stained with May-Grünwald dye. Leukocytes were classified based on normal morphological criteria.

Row | Structure (SMILES) | total BAL leukocytes compared with Sham ([1]; 3 nmol/animal/day i.n.) | BAL macrophages compared with Sham ([1]; 3 or 10 nmol/animal/day i.n.) | bronchial relaxation to salbutamol (OVA-sensitized mice) | area under the Penh-metacholine concentration curve (AUC) ([2]; B 3.0 nmol/animal) | Penh maximal response Emax to inhaled metacholine ([2]; F and B 3.0 nmol/animal) | OVA-induced increase of BAL macrophages ([3]; 3 nmol/animal i.n.) | total leukocytes in BAL fluid ([3]; 3 nmol/animal i.n., vs untreated OVA group) | eosinophils in BAL samples ([3]; i.n., all treatments: FB 0.3, 1.0, 3.0 nmol/animal, F and B 3.0 nmol/animal)
1 | CCCC1OC2CC3C4CCC5=CC(=O)C=CC5(C)C4C(O)CC3(C)C2(C(=O)CO)O1 (stereo not drawn) [Bud, 11β,21-dihydroxy-16α,17α-(butylidenebis(oxy))pregna-1,4-diene-3.20-dione] | still significantly higher than that observed in the Sham mice | still significantly higher than those observed in the Sham group | – | – | – | – | – | –
2 | CCCC1OC2CC3C4CCC5=CC(=O)C=CC5(C)C4C(O)CC3(C)C2(C(=O)COP(=O)(O)O)O1 (centres unmarked) [B, Budesonide 21-phosphate] | – | – | did not ameliorate the lack of bronchial response to salbutamol | showed no effect | showed no effect | abolished the OVA-induced increase of BAL macrophages | significantly reduced | significantly controlled
